Source: DBAASP
Values after ≈ are worked out from the molar mass of the structure shown. Each block holds one molecule with its values, some of them ahead of it.

How the values were obtained:
Assay in all cases: ≥ marks a high value that may be exact or a test limit, other limits are often not marked, values filed in µg/mL are converted to µM
[1] = test system: Pseudomonas aeruginosa ATCC 27853
[2] = test system: Bacillus megaterium ATCC 10778
[3] = test system: Bacillus subtilis ATCC 6633
[4] = test system: Enterobacter cloacae beta-12
Escherichia coli SBS 363 = test system: Escherichia coli SBS 363
[5] = test system: Staphylococcus aureus ATCC 29213
[6] = test system: Serratia marcescens ATCC 4112
[7] = test system: Candida tropicalis IOC 4560
Candida albicans MDM8 = test system: Candida albicans MDM8
Micrococcus luteus A270 = test system: Micrococcus luteus A270
[8] = test system: Escherichia coli ATCC 25922
[9] = test system: Staphylococcus aureus ATCC 43300
[10] = test system: Klebsiella pneumoniae ATCC 700603
[11] = test system: Candida albicans ATCC 90028
[12] = test system: Cryptococcus neoformans ATCC 208821
[13] = test system: Acinetobacter baumannii ATCC 19606
[14] = test system: Staphylococcus aureus SH1000
Escherichia coli W3110 = test system: Escherichia coli W3110
[15] = test system: Klebsiella pneumoniae ATCC BAA-1705
[16] = test system: Pseudomonas aeruginosa PA214
[17] = test system: Pseudomonas aeruginosa PA330
[18] = test system: Pseudomonas aeruginosa PAO1
Escherichia coli K-12 = test system: Escherichia coli K-12
[19] = test system: Micrococcus luteus ATCC 9341
[20] = test system: Staphylococcus aureus ATCC 6538
[21] = test system: Proteus vulgaris ATCC 6380
Staphylococcus aureus = test system: Staphylococcus aureus
[22] = test system: Escherichia coli ATCC 2592
[23] = test system: Pseudomonas aeruginosa ATCC 9027
[24] = test system: Candida albicans ATCC 36232
[25] = test system: Escherichia coli DH5alpha

MIC [1]: 12.5 µM (≈ 19 µg/mL) | MIC [2]: 0.8 µM (≈ 1.22 µg/mL) | MIC [3]: 1.6 µM (≈ 2.43 µg/mL) | MIC [4]: 6.3 µM (≈ 9.58 µg/mL) | MIC (Escherichia coli SBS 363): 1.6 µM (≈ 2.43 µg/mL) | MIC [5]: 3.1 µM (≈ 4.71 µg/mL) | MIC [6]: 0.8 µM (≈ 1.22 µg/mL) | MIC [7]: 1.6 µM (≈ 2.43 µg/mL) | MIC (Candida albicans MDM8): 3.1 µM (≈ 4.71 µg/mL) | MIC (Micrococcus luteus A270): 1.6 µM (≈ 2.43 µg/mL)
SMILES: CC(C)C[C@H](NC(=O)[C@H](C)NC(=O)CNC(=O)[C@H](CC(C)C)NC(=O)[C@@H](N)Cc1ccccc1)C(=O)N[C@@H](Cc1c[nH]c2ccccc12)C(=O)N[C@@H](CC(N)=O)C(=O)N[C@H](C(=O)N[C@@H](C)C(=O)N[C@@H](CCCCN)C(=O)N[C@@H](CCCN=C(N)N)C(=O)N[C@H](C(=O)N[C@@H](Cc1ccccc1)C(N)=O)C(C)C)C(C)C [FLGALWNVAKRVF]

MIC [1]: > 50 µM | MIC [2]: 3.1 µM (≈ 4.63 µg/mL) | MIC [3]: 0.8 µM (≈ 1.19 µg/mL) | MIC [4]: ≥ 50 µM | MIC (Escherichia coli SBS 363): 0.8 µM (≈ 1.19 µg/mL) | MIC [5]: 0.8 µM (≈ 1.19 µg/mL) | MIC [6]: 0.4 µM (≈ 0.597 µg/mL) | MIC [7]: 3.1 µM (≈ 4.63 µg/mL) | MIC (Candida albicans MDM8): 3.1 µM (≈ 4.63 µg/mL) | MIC (Micrococcus luteus A270): 0.4 µM (≈ 0.597 µg/mL)
SMILES: CC(C)C[C@H](NC(=O)[C@H](C)NC(=O)CNC(=O)[C@H](CC(C)C)NC(=O)[C@@H](N)Cc1ccccc1)C(=O)N[C@@H](Cc1c[nH]c2ccccc12)C(=O)N[C@@H](CC(N)=O)C(=O)N[C@H](C(=O)N[C@@H](CC(C)C)C(=O)N[C@@H](CCCCN)C(=O)N[C@@H](CO)C(=O)N[C@H](C(=O)N[C@@H](Cc1ccccc1)C(N)=O)C(C)C)C(C)C [FLGALWNVLKSVF]

MIC [1]: > 20 µM | MIC [8]: > 20 µM | MIC [9]: > 20 µM | MIC [10]: > 20 µM | MIC [11]: 20 µM (≈ 33.1 µg/mL) | MIC [12]: 20 µM (≈ 33.1 µg/mL) | MIC [13]: > 20 µM | MIC [14]: ≥ 33 µM
SMILES: CC(C)C[C@H](NC(=O)CN)C(=O)N[C@@H](Cc1ccccc1)C(=O)N[C@@H](CCCCN)C(=O)N[C@@H](CC(C)C)C(=O)N[C@@H](CC(C)C)C(=O)N[C@@H](CCCCN)C(=O)N[C@@H](CCCCN)C(=O)N[C@@H](CC(C)C)C(=O)N[C@@H](CC(C)C)C(=O)N[C@@H](CCCCN)C(=O)N[C@@H](CC(C)C)C(=O)N[C@@H](CC(C)C)C(=O)N[C@@H](CCCCN)C(N)=O [GLFKLLKKLLKLLK]

MIC (Escherichia coli W3110): 16 µM (≈ 34.2 µg/mL) | MIC [15]: ≥ 128 µM
SMILES: CC[C@H](C)[C@H](N)C(=O)N[C@@H](CC(C)C)C(=O)N[C@@H](Cc1c[nH]c2ccccc12)C(=O)N[C@@H](C)C(=O)N[C@@H](CS)C(=O)N[C@@H](Cc1c[nH]c2ccccc12)C(=O)NCC(=O)N[C@@H](CC(C)C)C(=O)N[C@@H](CCCCN)C(=O)N[C@@H](CC(C)C)C(=O)N[C@@H](CC(C)C)C(=O)N[C@@H](CCCCN)C(=O)N[C@@H](Cc1ccc(O)cc1)C(=O)N[C@@H](CCCCN)C(=O)N[C@@H](CCCCN)C(=O)N[C@H](C(=O)N[C@@H](Cc1ccc(O)cc1)C(=O)O)[C@@H](C)CC [ILWACWGLKLLKYKKIY]

MIC [16]: ≥ 50 µM | MIC [17]: ≥ 50 µM | MIC [18]: 25 µM (≈ 45.9 µg/mL) | MIC (Escherichia coli K-12): 12.5 µM (≈ 22.9 µg/mL)
SMILES: C[C@H](NC(=O)[C@H](C)NC(=O)[C@H](CCCCN)NC(=O)[C@H](Cc1ccccc1)NC(=O)[C@H](C)NC(=O)[C@H](CCCCN)NC(=O)[C@H](C)NC(=O)[C@H](Cc1c[nH]c2ccccc12)NC(=O)[C@H](C)NC(=O)[C@H](CCCCN)NC(=O)[C@H](C)NC(=O)[C@H](Cc1ccccc1)NC(=O)[C@H](C)NC(=O)[C@H](CCCCN)NC(=O)[C@H](C)NC(=O)[C@H](CCCCN)NC(=O)[C@@H](N)CCCCN)C(N)=O [KKAKAFAKAWAKAFKAA]

MIC [16]: 3.1 µM (≈ 6.21 µg/mL) | MIC [17]: 6.3 µM (≈ 12.6 µg/mL) | MIC [18]: 3.1 µM (≈ 6.21 µg/mL) | MIC (Escherichia coli K-12): 3.1 µM (≈ 6.21 µg/mL)
SMILES: CC(C)C[C@H](NC(=O)[C@H](C)NC(=O)[C@H](CCCCN)NC(=O)[C@H](Cc1ccccc1)NC(=O)[C@H](CC(C)C)NC(=O)[C@H](CCCCN)NC(=O)[C@H](C)NC(=O)[C@H](Cc1c[nH]c2ccccc12)NC(=O)[C@H](CC(C)C)NC(=O)[C@H](CCCCN)NC(=O)[C@H](CC(C)C)NC(=O)[C@H](Cc1ccccc1)NC(=O)[C@H](C)NC(=O)[C@H](C)NC(=O)[C@H](CCCCN)NC(=O)[C@H](CCCCN)NC(=O)[C@@H](N)CCCCN)C(N)=O [KKKAAFLKLWAKLFKAL]

MIC [19]: 2.41 µM (≈ 3.12 µg/mL) | MIC [20]: 9.67 µM (≈ 12.5 µg/mL) | MIC [21]: ≥ 77.4 µM | MIC (Staphylococcus aureus): 38.7 µM (≈ 50 µg/mL) | MIC [22]: 2.41 µM (≈ 3.12 µg/mL) | MIC [23]: 1.21 µM (≈ 1.56 µg/mL) | MIC [24]: 2.41 µM (≈ 3.12 µg/mL)
SMILES: CC(C)C[C@H](NC(=O)[C@H](CCCCN)NC(=O)[C@H](Cc1ccccc1)NC(=O)[C@H](CC(C)C)NC(=O)[C@H](CC(C)C)NC(=O)[C@H](CCCCN)NC(=O)[C@@H](N)CCCCN)C(=O)N[C@@H](CCCCN)C(=O)N[C@@H](Cc1ccccc1)C(=O)N[C@@H](CCCCN)C(N)=O [KKLLFKLKFK]

MIC [19]: 2.44 µM (≈ 3.12 µg/mL) | MIC [20]: 9.78 µM (≈ 12.5 µg/mL) | MIC [21]: ≥ 78.2 µM | MIC (Staphylococcus aureus): 19.6 µM (≈ 25 µg/mL) | MIC [22]: 2.44 µM (≈ 3.12 µg/mL) | MIC [23]: 1.22 µM (≈ 1.56 µg/mL) | MIC [24]: 2.44 µM (≈ 3.12 µg/mL)
SMILES: CC(C)C[C@H](NC(=O)[C@H](CCCCN)NC(=O)[C@H](Cc1ccccc1)NC(=O)[C@H](CC(C)C)NC(=O)[C@@H](NC(=O)[C@H](CCCCN)NC(=O)[C@@H](N)CCCCN)C(C)C)C(=O)N[C@@H](CCCCN)C(=O)N[C@@H](Cc1ccccc1)C(=O)N[C@@H](CCCCN)C(N)=O [KKVLFKLKFK]

MIC [25]: ≥ 50 µM | MIC [14]: ≥ 50 µM
SMILES: CC[C@H](C)[C@H](NC(=O)[C@H](C)NC(=O)[C@H](CCCCN)NC(=O)[C@@H](NC(=O)[C@H](CC(C)C)NC(=O)[C@H](CCCCN)NC(=O)[C@H](CCCCN)NC(=O)[C@@H](NC(=O)CNC(=O)[C@H](C)NC(=O)[C@H](Cc1ccccc1)NC(=O)[C@H](Cc1ccc(O)cc1)NC(=O)[C@@H]1CCCN1C(=O)[C@H](CC(=O)O)NC(=O)[C@@H](N)Cc1c[nH]c2ccccc12)C(C)C)[C@@H](C)O)C(=O)N[C@@H](CC(C)C)C(=O)N[C@@H](C)C(=O)N[C@H](C(=O)N[C@@H](CCCN=C(N)N)C(=O)N[C@@H](C)C(N)=O)C(C)C [WDPYFAGVKKLTKAILAVRA]

MIC (Escherichia coli W3110): 1 µM (≈ 2.28 µg/mL) | MIC [15]: 2 µM (≈ 4.56 µg/mL)
SMILES: CC[C@H](C)[C@H](NC(=O)[C@H](CCCCN)NC(=O)[C@H](CCCCN)NC(=O)[C@H](Cc1ccc(O)cc1)NC(=O)[C@H](CCCCN)NC(=O)[C@H](CC(C)C)NC(=O)[C@H](CC(C)C)NC(=O)[C@H](CCCCN)NC(=O)[C@H](CC(C)C)NC(=O)CNC(=O)[C@H](Cc1c[nH]c2ccccc12)NC(=O)[C@H](CCCCN)NC(=O)[C@H](C)NC(=O)[C@H](Cc1c[nH]c2ccccc12)NC(=O)[C@H](CCCN=C(N)N)NC(=O)[C@@H](N)Cc1c[nH]c2ccccc12)C(=O)N[C@@H](Cc1ccc(O)cc1)C(=O)O [WRWAKWGLKLLKYKKIY]
